Laboratory results from US20240368150A1 (Hoffmann-La Roche Inc., priority 2021, published 2024).
Where two headings read alike, the source gives them in different places.

How the values were obtained:
primary human T-cells [1] = assay: Proliferation assay after 5 days (CellTiter-Glo, CD3 stimulation; PBS counter screen); assay type: cell-based; details: CD3 stimulation; for Emax: read-out: Emax proliferation (% activation); for EC50: primary human T-cells, CellTiter-Glo after 5 days, EC50 of fitted sigmoidal curve, read-out: Tcell Proliferation CD3 EC50
How it was run: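 ATP-based luminescence (CellTiter-Glo 2.0, room temperature) measured proliferation 5 days after compound addition to CD3-stimulated or unstimulated primary human T-cells. Flags marked compounds that lowered viability or activated unstimulated cells.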

MV-3 cells = assay: T-cell - TCB - MV3 killing assay (MCSP-TCB, RFP object count by Incucyte); assay type: cell-based, human
primary human T-cells [2] = tested on: primary human T-cells
[3] = Homo sapiens, T-cell, 120 h, 5 days, normalized to reference compound A1 as stimulator control = 100%, DMSO neutral control
[4] = Homo sapiens, MV-3, 120 h, normalized: MCSP-TCB only = neutral control, 20 μM reference compound A1 = 100%; 5 d; read-out: MSCP TCB killing MV-3 cells 5 d Emax
[5] = primary human T-cells + MCSP-TCB, MV-3 RFP cells, 5 d; read-out: MSCP TCB killing MV-3 cells 5 d EC50

SMILES | EC50 (primary human T-cells [2]) [nM] | Emax (primary human T-cells [1]; [3]) [%] | EC50 (primary human T-cells [1]; Homo sapiens, T-cell, 120 h) [nM] | Emax (MV-3 cells; [4]) [%] | EC50 (MV-3 cells; [5]) [nM] | EC50 (primary human T-cells [1]) [nM] | MSCP TCB killing MV-3 cells 5 d Emax (MV-3 cells; normalized: MCSP-TCB only = neutral control, 20 μM reference compound A1 = 100%; 5 d) [%] | EC50 (primary human T-cells [1]; T-cell, 120 h) [nM] | Emax (MV-3 cells; Homo sapiens, MV-3, 120 h, read-out: MSCP TCB killing MV-3 cells 5 d Emax) [%] | EC50 (MV-3 cells; read-out: MSCP TCB killing MV-3 cells 5 d EC50; primary human T-cells + MCSP-TCB, MV-3 RFP cells, 5 d) [nM] | Emax proliferation (% activation) (primary human T-cells [1]; 5 days, normalized to reference compound A1 as stimulator control = 100%, DMSO neutral control)
N[C@H]1CS(=O)(=O)c2cc(F)c(-c3nnc(C4CCCC(F)(F)C4)o3)cc2N(Cc2ccc(Cl)cc2)C1=O (stereo partly drawn) [Example 91, (3R)-3-amino-5-[(4-chlorophenyl)methyl]-7-[5-(3,3-difluorocyclohexyl)-1,3,4-oxadiazol-2-yl]-8-fluoro-1,1-dioxo-2,3-dihydro-1λ^6,5-benzothiazepin-4-one] | 34.1 | 139 | 125 | 93 | 20 |  |  |  |  |  | 
NC(c1nnc(-c2cc3c(cc2F)S(=O)(=O)C[C@H](N)C(=O)N3Cc2ccc(Cl)cc2)o1)C(F)(F)F (stereo partly drawn) [Example 122, (3R)-3-amino-7-[5-(1-amino-2,2,2-trifluoro-ethyl)-1,3,4-oxadiazol-2-yl]-5-[(4-chlorophenyl)methyl]-8-fluoro-1,1-dioxo-2,3-dihydro-1λ^6,5-benzothiazepin-4-one] | 238 | 92 | 782 | 86 | 510 |  |  |  |  |  | 
COC(=O)N1CCC(C)(c2nnc(-c3cc4c(cc3F)S(=O)(=O)C[C@H](N)C(=O)N4Cc3ccc(Cl)cc3)o2)CC1 [Example 171, methyl 4-methyl-4-[5-[(3R)-3-amino-5-[(4-chlorophenyl)methyl]-8-fluoro-1,1,4-trioxo-2,3-dihydro-1λ^6,5-benzothiazepin-7-yl]-1,3,4-oxadiazol-2-yl]piperidine-1-carboxylate] | 75.7 | 93 | 55.5 | 100 | 40 |  |  |  |  |  | 
CC(C)(C)c1nnc(-c2cc3c(cc2F)[S+]([O-])C[C@H](N)C(=O)N3Cc2ccc(Cl)cc2)o1 (stereo partly drawn) [Example 186, (3R)-3-amino-7-(5-tert-butyl-1,3,4-oxadiazol-2-yl)-5-[(4-chlorophenyl)methyl]-8-fluoro-1-oxo-2,3-dihydro-1λ^4,5-benzothiazepin-4-one] | 158 | 94 |  |  | 130 | 710 | 100 |  |  |  | 
CC(C)(C)c1nnc(-c2cc3c(cc2F)S(=O)(=O)C[C@H](N)C(=O)N3Cc2ccc(C#N)cc2)o1 [Example 220, 4-[[(3R)-3-amino-7-(5-tert-butyl-1,3,4-oxadiazol-2-yl)-8-fluoro-1,1,4-trioxo-2,3-dihydro-1λ^6,5-benzothiazepin-5-yl]methyl]benzonitrile] | 238 | 102 |  |  |  |  |  | 564 | 100 | 390 | 
CC(C)(C)c1nnc(-c2cc3c(cc2F)S(=O)(=O)C[C@H](N)C(=O)N3Cc2ccc(OC(F)(F)C(F)F)cc2)o1 [Example 232, (3R)-3-amino-7-(5-tert-butyl-1,3,4-oxadiazol-2-yl)-8-fluoro-1,1-dioxo-5-[[4-(1,1,2,2-tetrafluoroethoxy)phenyl]methyl]-2,3-dihydro-1λ^6,5-benzothiazepin-4-one] | 37 | 127 | 57.6 | 83 | 30 |  |  |  |  |  | 
CC(C)(C)c1nnc(-c2cc3c(cc2F)S(=O)(=O)C[C@H](N)C(=O)N3Cc2ccc(Cl)nc2)o1 [Example 237, (3R)-3-amino-7-(5-tert-butyl-1,3,4-oxadiazol-2-yl)-5-[(6-chloro-3-pyridyl)methyl]-8-fluoro-1,1-dioxo-2,3-dihydro-1λ^6,5-benzothiazepin-4-one] | 526 | 106 | 1300 | 84 | 450 |  |  |  |  |  | 

Continued, in another order:

EC50 (primary human T-cells [2]) [nM] | SMILES | Emax (primary human T-cells [1]; [3]) [%] | EC50 (primary human T-cells [1]; Homo sapiens, T-cell, 120 h) [nM] | Emax (MV-3 cells; [4]) [%] | EC50 (MV-3 cells; [5]) [nM] | EC50 (primary human T-cells [1]) [nM] | MSCP TCB killing MV-3 cells 5 d Emax (MV-3 cells; normalized: MCSP-TCB only = neutral control, 20 μM reference compound A1 = 100%; 5 d) [%] | EC50 (primary human T-cells [1]; T-cell, 120 h) [nM] | Emax (MV-3 cells; Homo sapiens, MV-3, 120 h, read-out: MSCP TCB killing MV-3 cells 5 d Emax) [%] | EC50 (MV-3 cells; read-out: MSCP TCB killing MV-3 cells 5 d EC50; primary human T-cells + MCSP-TCB, MV-3 RFP cells, 5 d) [nM] | Emax proliferation (% activation) (primary human T-cells [1]; 5 days, normalized to reference compound A1 as stimulator control = 100%, DMSO neutral control)
> 10000 | CC(C)Oc1ccc(CN2C(=O)[C@@H](N)CS(=O)(=O)c3cc(F)c(-c4nnc(C(C)(C)C)o4)cc32)cn1 [Example 249, (3R)-3-amino-7-(5-tert-butyl-1,3,4-oxadiazol-2-yl)-8-fluoro-5-[(6-isopropoxy-3-pyridyl)methyl]-1,1-dioxo-2,3-dihydro-1λ^6,5-benzothiazepin-4-one] | 161 | 1240 | 100 | 210 |  |  |  |  |  | 
59.5 | CC(C)Oc1ccc(CN2C(=O)[C@@H](N)CS(=O)(=O)c3cc(F)c(-c4nnc(C(C)(C)C)o4)cc32)cc1 [Example 254, (3R)-3-amino-7-(5-tert-butyl-1,3,4-oxadiazol-2-yl)-8-fluoro-5-[(4-isopropoxyphenyl)methyl]-1,1-dioxo-2,3-dihydro-1λ^6,5-benzothiazepin-4-one] | 95 | < 15.1 | 104 | 10 |  |  |  |  |  | 
< 162 | C[C@H](N)C(=O)N[C@H]1CS(=O)(=O)c2cc(F)c(-c3nnc(C(C)(C)C)o3)cc2N(Cc2ccc(Cl)cc2)C1=O [Example 262] | 101 | < 162 | 92 | 30 |  |  |  |  |  | 
57.4 | CC[C@H](NC)C(=O)N[C@H]1CS(=O)(=O)c2cc(F)c(-c3nnc(C(C)(C)C)o3)cc2N(Cc2ccc(Cl)cc2)C1=O [Example 270, (2S)-2-(methylamino)-N-[(3R)-7-(5-tert-butyl-1,3,4-oxadiazol-2-yl)-5-[(4-chlorophenyl)methyl]-8-fluoro-1,1,4-trioxo-2,3-dihydro-1λ^6,5-benzothiazepin-3-yl]butanamide] |  |  | 81 | 20 | 39.7 |  |  |  |  | 111
1700 | Cc1cc2c(cc1-c1nnc(C(C)(C)C)o1)N(Cc1ccc(Cl)cc1)C(=O)[C@@H](N)CS2(=O)=O [Example 272, (3R)-3-amino-7-(5-tert-butyl-1,3,4-oxadiazol-2-yl)-5-[(4-chlorophenyl)methyl]-8-methyl-1,1-dioxo-2,3-dihydro-1λ^6,5-benzothiazepin-4-one] | 102 | 790 | 100 | 1090 |  |  |  |  |  | 
177 | CC(C)(C)n1cc(-c2cc3c(cc2F)S(=O)(=O)C[C@H](N)C(=O)N3Cc2ccc(Cl)cc2)cn1 [Example 278, (3R)-3-amino-7-(1-tert-butylpyrazol-4-yl)-5-[(4-chlorophenyl)methyl]-8-fluoro-1,1-dioxo-2,3-dihydro-1λ^6,5-benzothiazepin-4-one] | 102 | 1080 | 100 | 830 |  |  |  |  |  | 
3710 | CC(C)(C)c1cnn(-c2cc3c(cc2F)S(=O)(=O)C[C@H](N)C(=O)N3Cc2ccc(Cl)cc2)c1 [Example 282, (3R)-3-amino-7-(4-tert-butylpyrazol-1-yl)-5-[(4-chlorophenyl)methyl]-8-fluoro-1,1-dioxo-2,3-dihydro-1λ^6,5-benzothiazepin-4-one] | 96 | 5490 | 74 | 880 |  |  |  |  |  | 
> 20000 | CC(C)(C)n1cnc(-c2cc3c(cc2F)S(=O)(=O)C[C@H](N)C(=O)N3Cc2ccc(Cl)cc2)n1 [Example 286, (3R)-3-amino-7-(1-tert-butyl-1,2,4-triazol-3-yl)-5-[(4-chlorophenyl)methyl]-8-fluoro-1,1-dioxo-2,3-dihydro-1λ^6,5-benzothiazepin-4-one] | 93 | 338 | 100 | 80 |  |  |  |  |  | 
